Data taken from patent publication US7419984B2, “Pyrimidines and uses thereof” (Cell Therapeutics, Inc., priority 2002, dated 2008).

Molecular target: T1, human LPAAT-β (Homo sapiens, UniProt O15120)
T1 construct: the full-length human LPAAT-β cDNA was amplified by PCR; poly-histidine tag (N); made in house; host or cells: Sf9 insect cells (baculovirus, pFastBac HTc); the membrane fraction was used as the enzyme
T1 sequence (O15120 24-278): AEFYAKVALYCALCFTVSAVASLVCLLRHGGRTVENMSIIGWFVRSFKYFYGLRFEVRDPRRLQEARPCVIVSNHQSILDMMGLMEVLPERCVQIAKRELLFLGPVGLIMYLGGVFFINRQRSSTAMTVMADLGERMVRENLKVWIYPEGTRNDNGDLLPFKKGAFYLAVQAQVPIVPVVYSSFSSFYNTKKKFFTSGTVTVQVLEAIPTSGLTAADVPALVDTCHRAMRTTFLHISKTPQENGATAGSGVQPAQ
Assay: LPAAT-β cell-free assay
Assay type: biochemical
Details: Sf9 cell membrane overexpressing recombinant LPAAT-β
Method in brief: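 Membranes from Sf9 cells expressing His/myc-tagged full-length human LPAAT-β were used in HEPES-saline pH 7.5 with 1 mg/ml BSA. Compound was added from a 200 μM DMSO stock, and reaction with 18:1-CoA and sn-1-18:1 lysoPA (1 mM stocks) ran 25 min at RT. Released CoA was detected with DTNB at 405 nm; a radiometric variant used 200 μM [14C]18:1-CoA and 200 μM lysoPA.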

SMILES | IC50
CCOC(=O)c1cccc(Nc2cc(-c3cc(Cl)ccc3Cl)nc(N)n2)c1 [Example 170, 3-[2-Amino-6-(2,5-dichloro-phenyl)-pyrimidin-4-ylamino]-benzoic acid ethyl ester] | 24 nM
CCc1ccc(Cl)cc1-c1cc(Nc2ccc(CCO)cc2)nc(N)n1 [Example 175, 2-{4-[2-amino-6-(5-chloro-2-ethyl-phenyl)-pyrimidin4-ylamino]-phenyl}-ethanol] | 100 nM
Cc1ccc(Cl)cc1-c1cc(Nc2ccc(CCO)cc2)ncn1 [Example 176, 2-{4-[6-(5-Chloro-2-methyl-phenyl)-pyrimidin-4-ylamino]-phenyl}-ethanol] | 60 nM
Nc1nc(Nc2ccc(Cl)cc2)cc(-c2cc(Br)ccc2OCc2ccc([N+](=O)[O-])cc2)n1 [Example 178, 6-[5-Bromo-2-(4-nitro-benzyloxy)-phenyl]-N*4*-(4-chloro-phenyl)-pyrimidine-2,4-diamine] | 21 nM
Nc1nc(Nc2ccc(Cl)c(C(F)(F)F)c2)cc(-c2cc(Cl)ccc2Cl)n1 [Example 179, N*4*-(4-Chloro-3-trifluoromethyl-phenyl)-6-(2,5-dichloro-phenyl)-pyrimidin-2,4-diamine] | 180 nM
CCOc1ccc(Br)cc1-c1cc(Nc2ccc(C(F)(F)F)cc2)ncn1 [Example 180, [6-(5-Bromo-2-ethoxy-phenyl)-pyrimidin-4-yl]-(4-trifluoromethyl-phenyl)-amine] | 160 nM
CCOc1ccc(Br)cc1-c1cc(Nc2ccc(Br)cc2)ncn1 [Example 181, [6-(5-Bromo-2-ethoxy-phenyl)-pyrimidin-4-yl]-(4-bromo-phenyl)-amine] | 40 nM
COc1ccccc1COc1ccc(Br)cc1-c1cc(Nc2ccc(Cl)cc2)nc(N)n1 [Example 182, 6-[5-Bromo-2-(2-methoxy-benzyloxy)-phenyl]-N*4*-(4-chloro-phenyl)-pyrimidine-2,4-diamine] | 4 nM
CCOc1ccc(Br)cc1-c1cc(Nc2ccc(C(=O)NO)cc2)nc(N)n1 [Example 183, 4-[2-Amino-6-(5-bromo-2-ethoxy-phenyl)-pyrimidin-4-ylamino]-N-hydroxy-benzamide] | 88 nM
COc1ccc(COc2ccc(Br)cc2-c2cc(Nc3ccc(Cl)cc3)nc(N)n2)cc1 [Example 185, 6-[5-Bromo-2-(4-methoxy-benzyloxy)-phenyl]-N*4*-(4-chloro-phenyl)-pyrimidine-2,4-diamine] | 4 nM
CCOc1ccc(Br)cc1-c1cc(Nc2ccc(C(N)=O)cc2)nc(N)n1 [Example 186, 4-[2-Amino-6-(5-bromo-2-ethoxy-phenyl)-pyrimidin4-ylamino]-benzamide] | 740 nM
Nc1nc(Nc2ccc(Cl)cc2)cc(-c2cc(Br)ccc2Cl)n1 [Example 187, 6-(5-Bromo-2-chloro-phenyl)-N*4*-(4-chloro-phenyl)-pyrimidine-2,4-diamine] | 22 nM
COc1ccccc1COc1ccc(Br)cc1-c1cc(Nc2ccc(C)cc2)nc(N)n1 [Example 188, 6-[5-Bromo-2-(2-methoxy-benzyloxy)-phenyl]-N*4*-p-tolyl-pyrimidine-2,4-diamine] | 21 nM
CCOc1ccc(Br)cc1-c1cc(Nc2ccc(F)cc2)ncn1 [Example 192, [6-(5-Bromo-2-ethoxy-phenyl)-pyrimidin4-yl]-(4-fluoro-phenyl)-amine] | 60 nM

Further compounds by falling IC50, results first:

IC50 | SMILES
260 nM | CCOC(=O)c1cccc(Nc2cc(-c3cc(Br)ccc3OC)nc(N)n2)c1 [Example 171, 3-[2-Amino-6-(5-bromo-2-methoxy-phenyl)-pyrimidin4-ylamino]-benzoic acid ethyl ester]
200 nM | CNC(=O)c1cc(Nc2cc(-c3cc(Br)ccc3OC)nc(N)n2)ccc1Cl [Example 184, 5-[2-Amino-6-(5-bromo-2-methoxy-phenyl)-pyrimidin4-ylamino]-2-chloro-N-methyl-benzamide]
79 nM | Nc1nc(Nc2ccc(C(F)(F)F)cc2)cc(-c2cc(Br)ccc2Cl)n1 [Example 189, 6-(5-Bromo-2-chloro-phenyl)-N*4*-(4-trifluoromethyl-phenyl)-pyrimidine-2,4-diamine]
45 nM | Cc1ccc(Cl)cc1-c1cc(Nc2ccc(Br)cc2)ncn1 [Example 172, (4-Bromo-phenyl)-[6-(5-chloro-2-methyl-phenyl)-pyrimidin-4-yl]-amine]
30 nM | CCOc1ccc(Br)cc1-c1cc(Nc2ccc(Cl)cc2)ncn1 [Example 190, [6-(5-Bromo-2-ethoxy-phenyl)-pyrimidin4-yl]-(4-chloro-phenyl)-amine]
20 nM | CCOc1ccc(Br)cc1-c1cc(Nc2ccc(CCO)cc2)ncn1 [Example 191, 2-{4-[6-(5-Bromo-2-ethoxy-phenyl)-pyrimidin-4-ylamino]-phenyl}-ethanol]
9 nM | C=CCOc1ccc(Cl)cc1-c1cc(Nc2ccc(Cl)cc2)nc(N)n1 [Example 174, 6-(2-Allyloxy-5-chloro-phenyl)-N*4*-(4-chloro-phenyl)-pyrimidine-2,4-diamine]
2 nM | Nc1nc(Nc2ccc([N+](=O)[O-])cc2)cc(-c2cc(Br)ccc2OCc2ccccc2)n1 [Example 177, 6-(2-Benzyloxy-5-bromo-phenyl)-N*4*-(4-nitro-phenyl)-pyrimidine-2,4-diamine]
